According to ChEMBL document CHEMBL3124747, “Formosusin A, a novel specific inhibitor of mammalian DNA polymerase β from the fungus Paecilomyces formosus” (Bioorg Med Chem, 2014):

Key:
[1] = Inhibition of calf DNA primase of polymerase alpha assessed as inhibition of incorporation of dTTP into poly(dA)/oligo(dT)18 after 60 mins; design: species or system Bos taurus
[2] = Inhibition of fruit fly DNA polymerase epsilon assessed as inhibition of incorporation of dTTP into poly(dA)/oligo(dT)18 after 60 mins; design: species or system Drosophila melanogaster
[3] = Inhibition of cauliflower DNA polymerase alpha assessed as inhibition of incorporation of dTTP into poly(dA)/oligo(dT)18 after 60 mins; design: species or system Brassica oleracea var. botrytis
[4] = molecular target: DNA nucleotidylexotransferase (Bos taurus, UniProt P06526); assay: Inhibition of calf thymus TdT assessed as inhibition of incorporation of dTTP into oligo(dT)18(3'OH) after 60 mins
[5] = molecular target: DNA-directed DNA/RNA polymerase mu (Homo sapiens, UniProt Q9NP87); assay: Inhibition of human His-tagged recombinant DNA polymerase mu expressed in Escherichia coli BL21 assessed as inhibition of incorporation of dTTP into poly(dA)/oligo(dT)18 after 60 mins
[6] = Inhibition of DNA polymerase epsilon isolated from human MOLT4 cells assessed as inhibition of incorporation of dTTP into poly(dA)/oligo(dT)18 after 60 mins; assay type: cell-free; conditions: molt-4
T7 RNA polymerase = T7 RNA polymerase (Enterobacteria phage T7, UniProt P00573); assay: Inhibition of T7 RNA polymerase assessed as inhibition of incorporation of dTTP into poly(dA)/oligo(dT)18 after 60 mins; design: species or system Escherichia phage T7
DNA polymerase beta = DNA polymerase beta (Rattus norvegicus, UniProt P06766); assay: Inhibition of recombinant rat DNA polymerase beta expressed in Escherichia coli JMpbeta5 assessed as inhibition of incorporation of dTTP into poly(dA)/oligo(dT)18 after 60 mins
Deoxyribonuclease-1 = Deoxyribonuclease-1 (Bos taurus, UniProt P00639); assay: Inhibition of bovine deoxyribonuclease 1 assessed as inhibition of incorporation of dTTP into poly(dA)/oligo(dT)18 after 60 mins
[7] = Inhibition of Thermus aquaticus DNA polymerase assessed as inhibition of incorporation of dTTP into poly(dA)/oligo(dT)18 after 60 mins
Polynucleotide kinase = Polynucleotide kinase (Enterobacteria phage T4, UniProt P06855); assay: Inhibition of T4 bacteriophage polynucleotide kinase assessed as inhibition of incorporation of dTTP into poly(dA)/oligo(dT)18 after 60 mins; design: species or system Tequatrovirus T4
[8] = Inhibition of calf thymus DNA polymerase alpha assessed as inhibition of incorporation of dTTP into poly(dA)/oligo(dT)18 after 60 mins; design: species or system Bos taurus
[9] = Inhibition of cherry salmon DNA polymerase delta assessed as inhibition of incorporation of dTTP into poly(dA)/oligo(dT)18 after 60 mins; design: species or system Oncorhynchus masou
[10] = molecular target: T1, DNA polymerase delta catalytic subunit (Drosophila melanogaster, UniProt P54358); assay: Inhibition of fruit fly DNA polymerase delta assessed as inhibition of incorporation of dTTP into poly(dA)/oligo(dT)18 after 60 mins
T1 sequence (P54358 whole entry): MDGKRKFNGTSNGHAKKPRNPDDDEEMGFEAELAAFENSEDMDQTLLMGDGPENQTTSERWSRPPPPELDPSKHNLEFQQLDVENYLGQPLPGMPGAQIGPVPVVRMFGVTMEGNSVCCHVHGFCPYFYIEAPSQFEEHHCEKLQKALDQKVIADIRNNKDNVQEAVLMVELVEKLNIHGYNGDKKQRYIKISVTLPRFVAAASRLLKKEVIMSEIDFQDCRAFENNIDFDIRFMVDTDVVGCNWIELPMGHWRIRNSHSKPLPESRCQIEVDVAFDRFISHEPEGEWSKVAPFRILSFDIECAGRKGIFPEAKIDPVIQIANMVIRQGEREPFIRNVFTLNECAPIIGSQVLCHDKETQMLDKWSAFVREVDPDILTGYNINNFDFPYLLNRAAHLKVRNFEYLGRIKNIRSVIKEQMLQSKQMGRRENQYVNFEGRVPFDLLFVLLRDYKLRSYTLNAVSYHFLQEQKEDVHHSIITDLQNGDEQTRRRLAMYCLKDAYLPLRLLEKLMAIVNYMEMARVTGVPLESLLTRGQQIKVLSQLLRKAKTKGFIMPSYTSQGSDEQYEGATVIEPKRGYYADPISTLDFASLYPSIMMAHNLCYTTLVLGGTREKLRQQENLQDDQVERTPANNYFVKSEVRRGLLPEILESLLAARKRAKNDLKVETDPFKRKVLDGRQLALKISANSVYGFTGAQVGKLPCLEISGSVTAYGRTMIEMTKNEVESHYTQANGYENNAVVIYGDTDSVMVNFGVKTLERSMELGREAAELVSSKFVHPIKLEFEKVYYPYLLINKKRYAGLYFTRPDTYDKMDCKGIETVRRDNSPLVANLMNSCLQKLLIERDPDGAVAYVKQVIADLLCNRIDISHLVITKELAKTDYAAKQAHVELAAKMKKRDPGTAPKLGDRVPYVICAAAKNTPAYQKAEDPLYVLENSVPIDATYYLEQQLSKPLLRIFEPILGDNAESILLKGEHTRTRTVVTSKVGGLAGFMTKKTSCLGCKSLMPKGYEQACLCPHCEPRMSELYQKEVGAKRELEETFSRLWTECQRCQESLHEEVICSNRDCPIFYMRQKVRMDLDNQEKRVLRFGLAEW

Deoxyribonuclease-1, sequence (P00639 whole entry): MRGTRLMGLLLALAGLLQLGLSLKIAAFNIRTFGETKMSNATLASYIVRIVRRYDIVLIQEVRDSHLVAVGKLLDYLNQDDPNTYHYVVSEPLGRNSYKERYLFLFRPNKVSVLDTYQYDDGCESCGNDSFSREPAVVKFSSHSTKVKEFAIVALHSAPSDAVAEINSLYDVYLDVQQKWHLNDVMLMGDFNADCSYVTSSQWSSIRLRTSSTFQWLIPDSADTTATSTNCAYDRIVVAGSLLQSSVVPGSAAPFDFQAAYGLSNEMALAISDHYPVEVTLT
Polynucleotide kinase, sequence (P06855 whole entry): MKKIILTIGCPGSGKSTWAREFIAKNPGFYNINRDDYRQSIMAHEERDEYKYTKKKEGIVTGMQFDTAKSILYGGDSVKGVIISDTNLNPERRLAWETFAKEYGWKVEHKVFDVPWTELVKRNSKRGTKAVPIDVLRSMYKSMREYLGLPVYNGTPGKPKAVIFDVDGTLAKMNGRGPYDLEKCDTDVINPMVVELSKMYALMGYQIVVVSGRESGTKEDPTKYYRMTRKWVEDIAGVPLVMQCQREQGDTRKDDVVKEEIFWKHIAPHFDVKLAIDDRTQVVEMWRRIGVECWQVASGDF
DNA-directed DNA/RNA polymerase mu, sequence (Q9NP87 whole entry): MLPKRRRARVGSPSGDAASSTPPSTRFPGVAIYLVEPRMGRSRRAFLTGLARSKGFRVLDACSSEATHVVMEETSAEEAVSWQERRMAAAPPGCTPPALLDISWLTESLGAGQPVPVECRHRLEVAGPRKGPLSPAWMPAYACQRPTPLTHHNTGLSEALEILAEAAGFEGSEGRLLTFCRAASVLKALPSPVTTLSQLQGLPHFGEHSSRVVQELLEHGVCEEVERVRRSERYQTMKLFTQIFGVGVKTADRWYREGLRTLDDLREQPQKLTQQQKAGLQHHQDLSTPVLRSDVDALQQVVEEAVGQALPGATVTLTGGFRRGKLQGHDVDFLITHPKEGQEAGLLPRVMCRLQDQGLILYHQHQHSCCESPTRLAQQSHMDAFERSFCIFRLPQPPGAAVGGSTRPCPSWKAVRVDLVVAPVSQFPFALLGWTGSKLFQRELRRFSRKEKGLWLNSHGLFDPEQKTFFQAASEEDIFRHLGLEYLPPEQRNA
T7 RNA polymerase, sequence (P00573 whole entry): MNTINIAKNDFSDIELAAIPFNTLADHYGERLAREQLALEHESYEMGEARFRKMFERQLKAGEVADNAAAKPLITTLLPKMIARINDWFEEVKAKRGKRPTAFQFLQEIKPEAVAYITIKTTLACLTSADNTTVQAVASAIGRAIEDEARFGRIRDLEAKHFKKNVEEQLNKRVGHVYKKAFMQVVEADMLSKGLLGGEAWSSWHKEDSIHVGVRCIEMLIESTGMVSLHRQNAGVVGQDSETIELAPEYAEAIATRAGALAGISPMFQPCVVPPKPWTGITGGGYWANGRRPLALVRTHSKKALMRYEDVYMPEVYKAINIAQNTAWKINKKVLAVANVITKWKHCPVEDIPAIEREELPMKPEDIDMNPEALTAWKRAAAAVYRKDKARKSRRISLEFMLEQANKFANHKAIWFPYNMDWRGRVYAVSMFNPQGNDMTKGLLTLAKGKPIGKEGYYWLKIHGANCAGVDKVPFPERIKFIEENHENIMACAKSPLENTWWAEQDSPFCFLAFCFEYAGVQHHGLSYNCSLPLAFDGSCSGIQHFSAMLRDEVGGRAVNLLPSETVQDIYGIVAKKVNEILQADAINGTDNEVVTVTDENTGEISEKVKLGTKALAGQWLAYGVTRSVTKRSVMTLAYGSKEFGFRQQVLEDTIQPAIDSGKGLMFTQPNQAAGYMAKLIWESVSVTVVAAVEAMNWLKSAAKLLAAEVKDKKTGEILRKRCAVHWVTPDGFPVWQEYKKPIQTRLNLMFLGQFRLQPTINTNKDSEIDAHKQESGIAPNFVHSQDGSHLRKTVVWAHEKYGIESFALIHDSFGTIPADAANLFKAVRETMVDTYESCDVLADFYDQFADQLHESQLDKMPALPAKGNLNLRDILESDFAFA
DNA nucleotidylexotransferase, sequence (P06526 whole entry): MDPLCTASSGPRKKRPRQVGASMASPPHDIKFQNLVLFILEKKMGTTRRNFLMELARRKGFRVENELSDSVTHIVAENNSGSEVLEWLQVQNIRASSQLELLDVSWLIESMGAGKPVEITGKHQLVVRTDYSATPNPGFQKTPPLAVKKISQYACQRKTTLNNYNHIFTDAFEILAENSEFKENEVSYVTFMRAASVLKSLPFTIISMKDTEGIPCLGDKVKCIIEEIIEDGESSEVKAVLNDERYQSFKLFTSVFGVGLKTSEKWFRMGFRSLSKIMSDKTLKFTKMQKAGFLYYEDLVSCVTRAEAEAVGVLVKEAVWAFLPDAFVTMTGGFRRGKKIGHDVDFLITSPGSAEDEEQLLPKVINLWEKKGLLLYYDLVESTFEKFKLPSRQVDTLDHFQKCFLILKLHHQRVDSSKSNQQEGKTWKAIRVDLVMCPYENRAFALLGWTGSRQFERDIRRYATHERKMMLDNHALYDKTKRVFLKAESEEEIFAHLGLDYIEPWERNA

SMILES: CCCCC(=O)/C=C(C)/C=C/CCC(=O)N1CCCC1=O
- IC50 [1]: > 200 µM
- IC50 [2]: > 200 µM
- IC50 [3]: > 200 µM
- IC50 [4]: > 200 µM
- IC50 [5]: > 200 µM
- IC50 [6]: > 200 µM
- IC50 (T7 RNA polymerase): > 200 µM
- IC50 (DNA polymerase beta): > 200 µM
- IC50 (Deoxyribonuclease-1): > 200 µM
- IC50 [7]: > 200 µM
- IC50 (Polynucleotide kinase): > 200 µM
- IC50 [8]: > 200 µM
- IC50 [9]: > 200 µM
- IC50 [10]: > 200 µM

SMILES: CCCC[C@@H](O)/C=C(C)/C=C/C=C\C(=O)N1CCCC1=O
- IC50 [1]: > 200 µM
- IC50 [2]: > 200 µM
- IC50 [3]: > 200 µM
- IC50 [4]: > 200 µM
- IC50 [5]: > 200 µM
- IC50 [6]: > 200 µM
- IC50 (T7 RNA polymerase): > 200 µM
- IC50 (DNA polymerase beta): 35.6 µM
- IC50 (Deoxyribonuclease-1): > 200 µM
- IC50 [7]: > 200 µM
- IC50 (Polynucleotide kinase): > 200 µM
- IC50 [8]: > 200 µM
- IC50 [9]: > 200 µM
- IC50 [10]: > 200 µM

SMILES: CCCC[C@@H](O)/C=C(C)/C=C/C=C/C(=O)N1CCCC1=O [PECILOCIN]
- IC50 [1]: > 200 µM
- IC50 [2]: > 200 µM
- IC50 [3]: > 200 µM
- IC50 [4]: > 200 µM
- IC50 [5]: > 200 µM
- IC50 [6]: > 200 µM
- IC50 (T7 RNA polymerase): > 200 µM
- IC50 (DNA polymerase beta): > 200 µM
- IC50 (Deoxyribonuclease-1): > 200 µM
- IC50 [7]: > 200 µM
- IC50 (Polynucleotide kinase): > 200 µM
- IC50 [8]: > 200 µM
- IC50 [9]: > 200 µM
- IC50 [10]: > 200 µM

SMILES: CC(/C=C/CCC(=O)N1CCCC1=O)=C\C1CCCCO1 (stereo unspecified)
- IC50 [1]: > 200 µM
- IC50 [2]: > 200 µM
- IC50 [3]: > 200 µM
- IC50 [4]: > 200 µM
- IC50 [5]: > 200 µM
- IC50 [6]: > 200 µM
- IC50 (T7 RNA polymerase): > 200 µM
- IC50 (DNA polymerase beta): > 200 µM
- IC50 (Deoxyribonuclease-1): > 200 µM
- IC50 [7]: > 200 µM
- IC50 (Polynucleotide kinase): > 200 µM
- IC50 [8]: > 200 µM
- IC50 [9]: > 200 µM
- IC50 [10]: > 200 µM
